Data published in patent publication US7138361B2, “Herbicidal heterocycles” (E. I. du Pont de Nemours and Company, priority 2000, dated 2006).

Key:
Format in all cases: in vivo
[1] = system: crabgrass (Digitaria sanguinalis); test: Test C preemergence; settings: for Plant response rating (0 to 100), Crabgrass: visual evaluation after 12 to 14 days
In short: (§1)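 Seeds are planted and treated before emergence; for the postemergence test, plants at 1- to 4-leaf stage (2–18 cm) receive the same formulation, a solvent blend containing surfactant. Plants stay in the greenhouse 12–14 days, then response is scored visually from 0 (none) to 100 (complete control).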

[2] = system: cocklebur (Xanthium strumarium); test: Test C preemergence; settings: for Plant response rating (0 to 100), Cocklebur: visual evaluation after 12 to 14 days
In short: as §1

[3] = system: common ragweed (Ambrosia elatior); test: Test C preemergence; settings: for Plant response rating (0 to 100), Ragweed, Common: Rate 500 g/ha, visual evaluation after 12 to 14 days
In short: as §1

[4] = system: pigweed (Amaranthus retroflexus); test: Test C preemergence; settings: for Plant response rating (0 to 100), Pigweed: Rate 500 g/ha, visual evaluation after 12 to 14 days
In short: as §1

[5] = system: woolly cupgrass (Eriochloa villosa); test: Test C preemergence; settings: for Plant response rating (0 to 100), Cupgrass, Woolly: visual evaluation after 12 to 14 days
In short: as §1

[6] = system: soybean (Glycine max); test: Test C preemergence; settings: for Plant response rating (0 to 100), Soybean: Rate 500 g/ha, visual evaluation after 12 to 14 days
In short: as §1

[7] = system: Surinam grass (Brachiaria decumbens); test: Test C preemergence; settings: for Plant response rating (0 to 100), Surinam grass: visual evaluation after 12 to 14 days
In short: as §1

[8] = system: Nightshade; test: Test C preemergence
[9] = system: goosegrass (Eleusine indica); test: Test C preemergence; settings: for Plant response rating (0 to 100), Goosegrass: visual evaluation after 12 to 14 days
In short: as §1

[10] = system: lambsquarters (Chenopodium album); test: Test C preemergence; settings: for Plant response rating (0 to 100), Lambsquarters: Rate 500 g/ha, visual evaluation after 12 to 14 days
In short: as §1

[11] = system: barnyardgrass (Echinochloa crus-galli); test: Test B preemergence
In short: (§2)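 Greenhouse test: chemicals are formulated in a surfactant-containing non-phytotoxic solvent and applied either preemergence to planted seeds or postemergence to plants 2 to 18 cm tall. Response is rated visually versus controls after 13 to 15 days, 0 meaning no effect and 100 complete control.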

[12] = system: crabgrass (Digitaria sanguinalis); test: Test B preemergence
In short: as §2

[13] = system: rice (Oryza saliva); test: Test B preemergence
In short: as §2

[14] = system: cocklebur (Xanthium strumarium); test: Test B preemergence
In short: as §2

[15] = system: pigweed (Amaranthus retroflexus); test: Test B preemergence
In short: as §2

[16] = system: velvetleaf (Abutilon theophrasti); test: Test B preemergence
In short: as §2

[17] = system: morning glory (Ipomoea hederacea); test: Test B preemergence
In short: as §2

[18] = system: Surinam grass (Brachiaria decumbens); test: Test B preemergence
In short: as §2

[19] = system: corn (Zea mays); test: Test B preemergence
In short: as §2

[20] = system: giant foxtail (Setaria faberii); test: Test B preemergence
In short: as §2

[21] = system: lambsquarters (Chenopodium album); test: Test B preemergence
In short: as §2

[22] = Rate 125 g/ha, scale 0 to 100, 0 no effect, 100 complete control
[23] = preemergence, Rate 62 g/ha, scale 0 to 100
[24] = preemergence, Rate 250 g/ha, scale 0 to 100, 0 no effect, 100 complete control
[25] = Rate 250 g/ha, scale 0 to 100, 0 no effect, 100 complete control
[26] = Preemergence, Rate 500 g/ha, scale 0 to 100, 0 no effect, 100 complete control
[27] = preemergence, Rate 125 g/ha, scale of 0 to 100 where 0 is no effect and 100 is complete control, 13 to 15 days
[28] = Rate 62 g/ha, scale 0 to 100, 0 no effect, 100 complete control
[29] = preemergence, Rate 125 g/ha, scale 0 to 100, 0 no effect, 100 complete control

CC(C)c1cccc(N2CCC(n3ccc(C(C)(C)C)n3)C2=O)c1 (centres unmarked) [Compound 111]
70: Plant response rating, Lambsquarters [10, 23] | Plant response rating, Crabgrass [12, 27]
0: Plant response rating, Cocklebur [2, 22] | Plant response rating, Cocklebur [2, 23] | Plant response rating (0 to 100), Cocklebur ([2]; preemergence, Rate 500 g/ha) | Plant response rating, Cocklebur [2, 24] | Plant response rating, Ragweed, Common [3, 22] | Plant response rating, Ragweed, Common [3, 23] | Plant response rating (0 to 100), Ragweed, Common ([3]; preemergence) | Plant response rating, Ragweed, Common [3, 24] | Plant response rating, Cupgrass, Woolly [5, 23] | Plant response rating, Soybean [6, 22] | Plant response rating, Soybean [6, 23] | Plant response rating (0 to 100), Soybean ([6]; preemergence) | Plant response rating, Soybean [6, 24] | Plant response rating, Surinam grass [7, 22] | Plant response rating, Surinam grass [7, 23] | Plant response rating, Surinam grass [7, 24] | Plant response rating, Nightshade ([8]; Rate 62 g/ha, scale 0 to 100) | Plant response rating, Nightshade ([8]; Rate 125 g/ha; scale 0 to 100, 0 no effect, 100 complete control) | Plant response rating, Nightshade [8, 25] | Plant response rating, Barnyardgrass [11, 27] | Plant response rating, Rice [13, 26] | Plant response rating, Rice [13, 27] | Plant response rating, Cocklebur [14, 26] | Plant response rating, Cocklebur [14, 27] | Plant response rating, Pigweed [15, 27] | Plant response rating, Velvetleaf [16, 26] | Plant response rating, Velvetleaf [16, 27] | Plant response rating, Morningglory [17, 26] | Plant response rating, Morningglory [17, 27] | Plant response rating, Surinam grass [18, 26] | Plant response rating, Surinam grass [18, 27] | Plant response rating, Corn [19, 27] | Plant response rating, Foxtail, Giant [20, 26] | Plant response rating, Foxtail, Giant [20, 27]
100: Plant response rating, Crabgrass [1, 22] | Plant response rating (0 to 100), Crabgrass ([1]; preemergence, Rate 500 g/ha) | Plant response rating, Crabgrass [1, 24] | Plant response rating (0 to 100), Goosegrass ([9]; preemergence, Rate 500 g/ha) | Plant response rating, Goosegrass [9, 24] | Plant response rating (0 to 100), Lambsquarters ([10]; preemergence) | Plant response rating, Lambsquarters [10, 24] | Plant response rating, Barnyardgrass [11, 26] | Plant response rating, Crabgrass [12, 26] | Plant response rating, Pigweed [15, 26] | Plant response rating, Lambsquarters [21, 26]
20: Plant response rating, Pigweed [4, 22] | Plant response rating, Pigweed [4, 24] | Plant response rating, Cupgrass, Woolly [5, 22]
80: Plant response rating, Crabgrass [1, 23] | Plant response rating, Pigweed [4, 23]
40: Plant response rating, Goosegrass [9, 23]
60: Plant response rating (0 to 100), Cupgrass, Woolly ([5]; preemergence, Rate 500 g/ha) | Plant response rating, Cupgrass, Woolly [5, 24]
85: Plant response rating, Goosegrass [9, 22] | Plant response rating, Lambsquarters [10, 22]
50: Plant response rating (0 to 100), Pigweed ([4]; preemergence)
30: Plant response rating, Corn [19, 26] | Plant response rating, Lambsquarters [21, 27]
10: Plant response rating (0 to 100), Surinam grass ([7]; preemergence, Rate 500 g/ha)

CCOC(=O)c1cccc(N2CCC(n3ccc(C(C)(C)C)n3)C2=O)c1 (centres unmarked) [Compound 72]
70: Plant response rating (0 to 100), Cocklebur ([2]; preemergence, Rate 500 g/ha) | Plant response rating, Ragweed, Common [3, 24] | Plant response rating (0 to 100), Cupgrass, Woolly ([5]; preemergence, Rate 500 g/ha) | Plant response rating, Goosegrass [9, 29] | Plant response rating, Surinam grass [18, 26]
100: Plant response rating (0 to 100), Crabgrass ([1]; preemergence, Rate 250 g/ha) | Plant response rating (0 to 100), Crabgrass ([1]; preemergence, Rate 500 g/ha) | Plant response rating, Crabgrass [1, 29] | Plant response rating (0 to 100), Pigweed ([4]; preemergence) | Plant response rating, Pigweed [4, 29] | Plant response rating (0 to 100), Lambsquarters ([10]; preemergence) | Plant response rating, Lambsquarters [10, 29] | Plant response rating, Lambsquarters [10, 24] | Plant response rating, Barnyardgrass [11, 26] | Plant response rating, Barnyardgrass [11, 27] | Plant response rating, Crabgrass [12, 26] | Plant response rating, Crabgrass [12, 27] | Plant response rating, Pigweed [15, 26] | Plant response rating, Pigweed [15, 27] | Plant response rating, Foxtail, Giant [20, 26] | Plant response rating, Foxtail, Giant [20, 27] | Plant response rating, Lambsquarters [21, 26] | Plant response rating, Lambsquarters [21, 27]
80: Plant response rating (0 to 100), Cupgrass, Woolly ([5]; preemergence, Rate 250 g/ha) | Plant response rating (0 to 100), Surinam grass ([7]; preemergence, Rate 250 g/ha) | Plant response rating (0 to 100), Goosegrass ([9]; preemergence, Rate 250 g/ha)
50: Plant response rating (0 to 100), Surinam grass ([7]; preemergence, Rate 500 g/ha)
90: Plant response rating, Crabgrass [1, 28] | Plant response rating (0 to 100), Ragweed, Common ([3]; preemergence) | Plant response rating (0 to 100), Goosegrass ([9]; preemergence, Rate 500 g/ha) | Plant response rating, Velvetleaf [16, 26] | Plant response rating, Morningglory [17, 26]
0: Plant response rating, Cocklebur [2, 28] | Plant response rating, Ragweed, Common [3, 29] | Plant response rating, Pigweed [4, 24] | Plant response rating, Cupgrass, Woolly [5, 28] | Plant response rating, Soybean [6, 29] | Plant response rating, Soybean [6, 24] | Plant response rating, Surinam grass [7, 28] | Plant response rating, Lambsquarters [10, 28] | Plant response rating, Rice [13, 26] | Plant response rating, Rice [13, 27] | Plant response rating, Cocklebur [14, 27] | Plant response rating, Velvetleaf [16, 27] | Plant response rating, Morningglory [17, 27] | Plant response rating, Surinam grass [18, 27] | Plant response rating, Corn [19, 26] | Plant response rating, Corn [19, 27]
30: Plant response rating, Cocklebur [2, 29] | Plant response rating, Surinam grass [7, 29] | Plant response rating, Nightshade ([8]; Rate 62 g/ha; scale 0 to 100, 0 no effect, 100 complete control) | Plant response rating, Nightshade [8, 25]
10: Plant response rating (0 to 100), Cocklebur ([2]; preemergence, Rate 250 g/ha) | Plant response rating, Cupgrass, Woolly [5, 29] | Plant response rating, Nightshade [8, 22]
60: Plant response rating, Cocklebur [14, 26]
20: Plant response rating (0 to 100), Soybean ([6]; preemergence) | Plant response rating, Goosegrass [9, 28]
